Assay results from ChEMBL document CHEMBL4613324, “Design, Synthesis, and Evaluation of a Series of Novel Super Long-Acting DPP-4 Inhibitors for the Treatment of Type 2 Diabetes” (J Med Chem, 2020).
Calls of active or inactive are those of the source. The rule behind the calls is not given here.

Experiments:
[1] = Clearance in ICR mouse at 0.5 mg/kg, iv measured after 0.0833 to 120 hrs by LC-MS-MS analysis; type: ADME, organism-based; conditions: in vivo
[2] = Half life in ICR mouse at 2 mg/kg, po measured after 0.0833 to 120 hrs by LC-MS-MS analysis; type: ADME, organism-based; conditions: in vivo
[3] = AUC (0 to t) in ICR mouse at 2 mg/kg, po measured after 0.0833 to 120 hrs by LC-MS-MS analysis; type: ADME, organism-based; parameters: time upper 120 hr, time lower 0.083 hr, dose 2 mg/kg, route oral; conditions: in vivo
[4] = Volume of distribution at steady state in ICR mouse at 0.5 mg/kg, iv measured after 0.0833 to 120 hrs by LC-MS-MS analysis; type: ADME, organism-based; conditions: in vivo, read-out: Vdss
[5] = Half life in ICR mouse at 0.5 mg/kg, iv measured after 0.0833 to 120 hrs by LC-MS-MS analysis; type: ADME, organism-based; conditions: in vivo
[6] = Cmax in ICR mouse at 2 mg/kg, po measured after 0.0833 to 120 hrs by LC-MS-MS analysis; type: ADME, organism-based; parameters: dose 2 mg/kg, route oral; conditions: in vivo
[7] = Oral bioavailability in ICR mouse at 2 mg/kg measured after 0.0833 to 120 hrs by LC-MS-MS analysis; type: ADME, organism-based; conditions: in vivo
[8] = Intrinsic clearance in mouse liver microsomes at 0.5 uM incubated for 0.5 to 60 mins by LC-MS/MS analysis; type: ADME, Microsome; conditions: read-out: CLH
[9] = target: Dipeptidyl peptidase 4 (Mus musculus) (UniProt P28843); assay: Ex-vivo inhibition of DPP4 in plasma isolated from ob/ob mouse treated at 30 mg/kg, po measured after 2 to 72 hrs by fluorescence based assay; type: functional, organism-based
Dipeptidyl peptidase 4 (Mus musculus), sequence (P28843 whole entry, looked up): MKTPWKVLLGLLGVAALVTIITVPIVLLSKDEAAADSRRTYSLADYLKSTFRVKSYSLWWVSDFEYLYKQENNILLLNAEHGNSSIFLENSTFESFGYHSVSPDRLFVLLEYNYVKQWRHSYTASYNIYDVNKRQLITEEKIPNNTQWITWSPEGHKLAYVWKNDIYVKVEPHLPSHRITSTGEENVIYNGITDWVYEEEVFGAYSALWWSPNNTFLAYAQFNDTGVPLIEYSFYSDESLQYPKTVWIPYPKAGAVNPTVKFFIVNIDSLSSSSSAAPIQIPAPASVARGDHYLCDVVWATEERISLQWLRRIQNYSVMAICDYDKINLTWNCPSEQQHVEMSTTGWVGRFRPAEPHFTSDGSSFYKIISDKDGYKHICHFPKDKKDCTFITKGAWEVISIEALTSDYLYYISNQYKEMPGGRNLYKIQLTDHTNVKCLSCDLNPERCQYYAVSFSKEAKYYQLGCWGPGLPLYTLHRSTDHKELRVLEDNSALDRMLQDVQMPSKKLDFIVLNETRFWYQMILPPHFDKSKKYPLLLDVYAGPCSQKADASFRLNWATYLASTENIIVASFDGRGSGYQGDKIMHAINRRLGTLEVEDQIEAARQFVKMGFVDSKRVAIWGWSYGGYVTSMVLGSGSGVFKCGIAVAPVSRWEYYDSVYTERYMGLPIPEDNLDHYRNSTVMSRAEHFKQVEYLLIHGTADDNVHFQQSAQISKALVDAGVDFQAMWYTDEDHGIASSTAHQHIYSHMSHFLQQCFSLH

[10] = target: Dipeptidyl peptidase 4 (Mus musculus) (UniProt P28843); assay: Ex-vivo inhibition of DPP4 in plasma isolated from ob/ob mouse assessed as time duration during which DPP4 inhibition rate stays above 80% treated at 30 mg/kg, po measured after 2 to 72 hrs by fluorescence based assay; type: functional, organism-based
Mus musculus [11] = assay: Antidiabetic activity in ob/ob mouse assessed as reduction in random blood glucose levels at 30 mg/kg, po dosed once every three days for 31 days; type: functional, organism-based
[12] = Toxicity in ob/ob mouse assessed as induction of body weight gain at 30 mg/kg, po dosed once every three days for 31 days; type: organism-based; conditions: in vivo, 744 h
Mus musculus [13] = assay: Antidiabetic activity in ob/ob mouse assessed as reduction in decrease in HbA1c level at 3 to 30 mg/kg, po dosed once every three days for 31 day; type: functional, organism-based
Mus musculus [14] = assay: Antidiabetic activity in ob/ob mouse assessed as reduction in decrease in HbA1c level at 30 mg/kg, po dosed once every three days for 31 day relative to control; type: functional; parameters: scale not given: the % may be the effect or the level left

clearance [1] [mL/min/kg]	half-life [2] [h]	AUC(0-t) [3] [ng·h/mL]	Vd [4] [L/kg]	half-life [5] [h]	Cmax [6] [ng/mL]	bioavailability [7] [%]	microsomal CLint at 0.5 µM [8] [µL/min/mg]	inhibition [9]	TIME [10] [h]	Structure (SMILES)	Activity (Mus musculus [11])	Activity [12]	Activity (Mus musculus [13])	Activity (Mus musculus [14]) [%]
0.645	19.2	23500	0.957	20.9	1580	45.4	1.2			CS(=O)(=O)n1cc2c(n1)CN([C@H]1CO[C@H](c3cc(F)ccc3F)[C@@H](N)[C@H]1F)C2				
1.44	20	26500	2.27	19.7	999	114	1.17			CS(=O)(=O)n1cc2c(n1)CN([C@@H]1C[C@H](N)[C@@H](c3cc(F)c(F)cc3F)O[C@@H]1C(F)(F)F)C2				
7.39	4.65	4100	1.65	3.05	798	95	1.89	Active	18	CS(=O)(=O)n1cc2c(n1)CN([C@H]1CO[C@H](c3cc(F)ccc3F)[C@@H](N)C1)C2 [OMARIGLIPTIN]	Active	Toxic	Active	13.6
